In ChEMBL document CHEMBL5634122, “Integrated fragment-based drug design and virtual screening techniques for exploring the antidiabetic potential of thiazolidine-2,4-diones: Design, synthesis and in vivo studies” (Eur J Med Chem, 2023):

Assays:
[1] = biological target: T1, Peroxisome proliferator-activated receptor gamma (Homo sapiens, UniProt P37231); assay: Agonist activity at PPARgamma in HEK293 cells assessed as transactivation incubated for 5 to 10 mins by microplate reader analysis; format: cell-based
T1 sequence (P37231 whole entry): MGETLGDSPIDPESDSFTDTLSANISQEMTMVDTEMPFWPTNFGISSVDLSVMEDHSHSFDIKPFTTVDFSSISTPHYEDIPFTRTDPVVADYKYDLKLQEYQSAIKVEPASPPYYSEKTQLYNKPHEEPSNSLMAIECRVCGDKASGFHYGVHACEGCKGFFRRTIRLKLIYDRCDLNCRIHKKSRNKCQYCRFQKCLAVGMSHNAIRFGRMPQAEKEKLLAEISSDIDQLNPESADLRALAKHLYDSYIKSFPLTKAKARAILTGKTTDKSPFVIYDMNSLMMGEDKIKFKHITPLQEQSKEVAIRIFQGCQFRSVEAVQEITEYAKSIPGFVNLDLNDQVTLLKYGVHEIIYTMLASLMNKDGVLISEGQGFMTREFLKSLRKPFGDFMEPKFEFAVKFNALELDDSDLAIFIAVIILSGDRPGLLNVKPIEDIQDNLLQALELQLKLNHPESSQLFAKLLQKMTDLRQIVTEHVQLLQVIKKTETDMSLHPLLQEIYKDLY

HEK293 = assay: Cytotoxicity against HEK293 cells assessed as reduction in cell viability at 100 to 8000 nM incubated for 24 hrs by MTT assay; format: toxicity, cell-based; conditions: human, hek293, 24 h, 8 µM, dose 100-8000 nM
[2] = Toxicity in Zebra fish assessed as change in body weight at 10 mg/kg measured after 10 days; format: organism-based, Danio rerio; conditions: zebrafish, in vivo, 240 h, time 10 day
[3] = Toxicity in Swiss albino mouse assessed as reduction in body weight at 10 mg/kg, po measured for 15 days; format: organism-based; conditions: in vivo, 360 h, time 15 day
Mus musculus [4] = assay: Antidiabetic activity in STZ-induced Swiss albino diabetic mouse model assessed as reduction in LDL level in serum at 36 mg/kg, po (reference value: 61.83 +/- 4.08 mg/dl); format: functional
Danio rerio = assay: Antidiabetic activity in STZ-induced Zebra fish diabetic model assessed as blood glucose level at 36 mg/kg measured after 10 days; format: functional; conditions: time 10 day
Mus musculus [5] = assay: Antidiabetic activity in STZ-induced Swiss albino diabetic mouse model assessed as blood glucose levels at 36 mg/kg, po measured immediately by oral glucose tolerance test (reference value: 234.5 mg/dl); format: functional
Mus musculus [6] = assay: Antidiabetic activity in STZ-induced Swiss albino diabetic mouse model assessed as reduction in triglyceride level in serum at 36 mg/kg, po (reference value: 131.83 +/- 12.12 mg/dl); format: functional
Mus musculus [7] = assay: Antidiabetic activity in STZ-induced Swiss albino diabetic mouse model assessed as blood glucose levels at 36 mg/kg, po measured after 30 mins by oral glucose tolerance test (reference value: 213.5 mg/dl); format: functional; conditions: 0.5 h
Mus musculus [8] = assay: Antidiabetic activity in STZ-induced Swiss albino diabetic mouse model assessed as blood glucose levels at 36 mg/kg, po measured after 120 mins by oral glucose tolerance test; format: functional; conditions: 2 h
[9] = Toxicity in Swiss albino mouse assessed as reduction in body weight at 36 mg/kg, po measured for 15 days; format: organism-based; conditions: in vivo, 360 h, time 15 day
Mus musculus [10] = assay: Antidiabetic activity in STZ-induced Swiss albino diabetic mouse model assessed as blood glucose levels at 36 mg/kg, po measured on day 1,3,5,7 and 15 by glucometer; format: functional; conditions: time 15 day
Mus musculus [11] = assay: Antidiabetic activity in STZ-induced Swiss albino diabetic mouse model assessed as increase in HDL level in serum at 36 mg/kg, po (reference value: 26 +/- 4.83 mg/dl); format: functional
Mus musculus [12] = assay: Antidiabetic activity in STZ-induced Swiss albino diabetic mouse model assessed as increase in total cholesterol level in serum at 36 mg/kg, po (reference value: 51.16 +/- 6.89 mg/dl); format: functional
Mus musculus [13] = assay: Antidiabetic activity in STZ-induced Swiss albino diabetic mouse model assessed as blood glucose levels at 36 mg/kg, po measured after 60 mins by oral glucose tolerance test (reference value: 199.16 mg/dl); format: functional; conditions: 1 h

EC50 [1] | Structure (SMILES) | Activity (HEK293) | further results
1.36 µM | Cc1ccc(CN2C(=O)S/C(=C\c3ccc(Nc4ccc(Cl)cc4)cc3)C2=O)cc1 | Non-Toxic | –
– | Cc1ccc(CN2C(=O)S/C(=C\c3ccc(Nc4ccccc4Cl)s3)C2=O)cc1 | Non-Toxic | Activity [2]: Non-Toxic
– | COc1cccc(CN2C(=O)S/C(=C\c3ccc(Nc4cccc(Cl)c4)cc3)C2=O)c1 | Non-Toxic | –
2.01 µM | Cc1ccc(CN2C(=O)S/C(=C\c3ccc(OCc4ccccc4)s3)C2=O)cc1 | Non-Toxic | –
– | Cc1ccc(CN2C(=O)S/C(=C\c3ccc(Nc4ccccc4[N+](=O)[O-])s3)C2=O)cc1 | Non-Toxic | –
1.55 µM | Cc1ccc(CN2C(=O)S/C(=C\c3ccc(Nc4ccc([N+](=O)[O-])cc4)s3)C2=O)cc1 | Non-Toxic | –
1.54 µM | Cc1ccc(CN2C(=O)S/C(=C\c3ccc(Oc4ccc([N+](=O)[O-])cc4)s3)C2=O)cc1 | Non-Toxic | –
– | COc1cccc(CN2C(=O)S/C(=C\c3ccc(Nc4ccc(Cl)cc4)cc3)C2=O)c1 | Non-Toxic | –
– | Cc1ccc(CN2C(=O)S/C(=C\c3ccc(Nc4cccc(Cl)c4)s3)C2=O)cc1 | Non-Toxic | Activity [2]: Non-Toxic; Activity [3]: Non-Toxic
3.57 µM | Cc1ccc(CN2C(=O)S/C(=C\c3ccc(Oc4ccc5ccccc5c4)s3)C2=O)cc1 | Non-Toxic | –
– | CCc1ccc(CCOc2ccc(CC3SC(=O)NC3=O)cc2)nc1 (centres undefined) [PIOGLITAZONE] | Non-Toxic | Activity (Mus musculus [4]): 30.16 mg/dL; Activity (Danio rerio): 112 mg/dL; Activity (Mus musculus [5]): 234.8 mg/dL; Activity (Mus musculus [6]): 52 mg/dL; Activity (Mus musculus [7]): 214.16 mg/dL; Activity (Mus musculus [8]): 112 mg/dL; Activity [9]: Non-Toxic; Activity (Mus musculus [10]): 132.2 mg/dL; Activity (Mus musculus [11]): 26 mg/dL; Activity (Mus musculus [12]): 51.16 mg/dL; Activity (Mus musculus [13]): 150.83 mg/dL
2.74 µM | Cc1ccc(CN2C(=O)S/C(=C\c3ccc(Oc4ccccc4)s3)C2=O)cc1 | Non-Toxic | –
1.47 µM | Cc1ccc(CN2C(=O)S/C(=C\c3ccc(Nc4ccc(Cl)cc4)s3)C2=O)cc1 | Non-Toxic | –
